Broadly, the IC50 is the concentration at which inhibition is half-maximal.

For the assay, the target named is T1, human recombinant mGluR5 receptor (Homo sapiens, UniProt P41594).
T1 construct: expressed in transfected cells; expression induced with doxycycline
In words: mGluR5 in vitro functional assay (aequorin cell line, inhibition of glutamate EC80 response). The format is cell-based. To be noted: aequorin cell line expressing human mGluR5, reference agonist glutamate at EC80, obtained in duplicate, read-out: IC50. An outline of the steps: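 Doxycycline-induced (600 ng/mL, 18 h) aequorin cells loaded with coelenterazine h ≥4 h at room temperature; compound preincubated 3 min before glutamate at EC80. Luminescence recorded, normalized to digitonin or 20 mM ATP wells; % inhibition of EC80 response fitted by sigmoidal nonlinear regression.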

Where two headings read alike, the source gives them in different places.

T1 sequence (P41594 21-1212): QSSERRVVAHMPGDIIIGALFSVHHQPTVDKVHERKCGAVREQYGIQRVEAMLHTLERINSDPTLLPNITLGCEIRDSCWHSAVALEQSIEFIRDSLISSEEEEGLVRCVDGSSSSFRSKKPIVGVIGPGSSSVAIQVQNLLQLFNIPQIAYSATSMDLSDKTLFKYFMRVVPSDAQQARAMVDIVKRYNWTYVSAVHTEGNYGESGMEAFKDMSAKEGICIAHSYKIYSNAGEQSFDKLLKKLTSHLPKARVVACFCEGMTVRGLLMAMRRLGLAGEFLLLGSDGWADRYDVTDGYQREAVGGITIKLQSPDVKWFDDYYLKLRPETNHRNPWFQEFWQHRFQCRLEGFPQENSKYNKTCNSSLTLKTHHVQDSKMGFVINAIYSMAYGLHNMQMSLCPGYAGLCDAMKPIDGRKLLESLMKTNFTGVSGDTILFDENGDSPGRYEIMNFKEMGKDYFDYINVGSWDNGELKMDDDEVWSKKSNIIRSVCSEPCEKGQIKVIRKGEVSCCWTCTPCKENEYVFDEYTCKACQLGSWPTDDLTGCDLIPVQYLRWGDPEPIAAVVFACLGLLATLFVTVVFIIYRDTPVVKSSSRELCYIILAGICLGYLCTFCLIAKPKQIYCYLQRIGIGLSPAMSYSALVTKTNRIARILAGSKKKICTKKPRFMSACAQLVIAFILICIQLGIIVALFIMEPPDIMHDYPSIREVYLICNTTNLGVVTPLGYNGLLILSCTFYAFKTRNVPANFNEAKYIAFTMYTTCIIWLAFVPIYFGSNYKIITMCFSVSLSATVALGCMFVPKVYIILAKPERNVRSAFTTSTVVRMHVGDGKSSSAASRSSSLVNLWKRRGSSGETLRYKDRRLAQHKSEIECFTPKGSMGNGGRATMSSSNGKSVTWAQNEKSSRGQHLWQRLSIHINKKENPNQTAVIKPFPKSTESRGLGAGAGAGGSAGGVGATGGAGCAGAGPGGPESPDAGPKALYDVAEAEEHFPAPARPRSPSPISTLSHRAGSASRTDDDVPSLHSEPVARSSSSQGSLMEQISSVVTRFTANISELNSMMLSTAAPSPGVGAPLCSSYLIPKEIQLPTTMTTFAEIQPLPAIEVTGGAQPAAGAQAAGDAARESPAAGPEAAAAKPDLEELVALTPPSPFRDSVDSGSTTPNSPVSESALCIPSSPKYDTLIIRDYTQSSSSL

For the compound `Clc1cc(Cl)cc(N2CCCc3oc(-c4ccccn4)nc3C2)c1` [Compound 209, 5-(3,5-Dichlorophenyl)-2-(pyridin-2-yl)-5,6,7,8-tetrahydro-4H-oxazolo[4,5-c]azepine], the IC50 (Table 2) is under 1000 nM.

`Clc1cccc(N2CCCc3oc(-c4ccccn4)nc3C2)c1` [Compound 102, 5-(3-Chlorophenyl)-2-(pyridin-2-yl)-5,6,7,8-tetrahydro-4H-oxazolo[4,5-c]azepine]: the half-maximal inhibitory concentration (IC50) (Table 1) was under 1000 nM.

With `Fc1cc(Cl)cc(N2CCCc3oc(-c4ncccn4)nc3C2)c1` [Compound 202, 5-(3-Chloro-5-fluorophenyl)-2-(pyrimidin-2-yl)-5,6,7,8-tetrahydro-4H-oxazolo[4,5-c]azepine], where the note is “Table 2”, the concentration for half-maximal inhibition (IC50) was under 1000 nM.

Regarding `Clc1ccc(N2CCCc3oc(-c4ccccn4)nc3C2)cc1` [Compound 212, 5-(4-Chlorophenyl)-2-(pyridin-2-yl)-5,6,7,8-tetrahydro-4H-oxazolo[4,5-c]azepine], the 50% inhibitory concentration (IC50) (Table 2) was under 1000 nM.

With `Clc1cncc(N2CCCc3oc(-c4ncccn4)nc3C2)c1` [Compound 201, 5-(5-Chloropyridin-3-yl)-2-(pyrimidin-2-yl)-5,6,7,8-tetrahydro-4H-oxazolo[4,5-c]azepine], the IC50 (Table 2) is under 10000 nM.

As for `N#Cc1cccc(N2CCc3oc(-c4ccccn4)nc3C2)n1` [Compound 29, 6-(2-(Pyridin-2-yl)-6,7-dihydrooxazolo[4,5-c]pyridin-5(4H)-yl)picolinonitrile], the IC50 (Table 1) is under 1000 nM.

On to `Fc1ccc(-c2nc3c(o2)CCCN(c2cccc(F)c2)C3)nc1` [Compound 133, 5-(3-fluorophenyl)-2-(5-fluoropyridin-2-yl)-5,6,7,8-tetrahydro-4H-oxazolo[4,5-c]azepine], for which the IC50 (Table 2) is under 1000 nM.

Regarding `Fc1ccc(-c2nc3c(o2)CCCN(c2cccc(Cl)c2)C3)nc1` [Compound 134, 5-(3-chlorophenyl)-2-(5-fluoropyridin-2-yl)-5,6,7,8-tetrahydro-4H-oxazolo[4,5-c]azepine], for the setting “Table 2”, the IC50 is under 1000 nM.

Consider `Fc1cc(Cl)cc(N2CCc3oc(-c4ccccn4)nc3C2)c1` [Compound 158, 5-(3-Chloro-5-fluorophenyl)-2-(pyridin-2-yl)-4,5,6,7-tetrahydrooxazolo[4,5-c]pyridine], for which, for the setting “Table 2”, the half-maximal inhibitory concentration (IC50) was under 1000 nM.

As for `N#Cc1cccc(N2CCc3oc(-c4ccncc4)nc3C2)c1` [Compound 78, 3-(2-(Pyridin-4-yl)-6,7-dihydrooxazolo[4,5-c]pyridin-5(4H)-yl)benzonitrile], where the note is “Table 1”, the IC50 was over 10000 nM.

As for `Clc1cc(Cl)cc(N2CCc3oc(-c4ccccn4)nc3C2)c1` [Compound 162, 5-(3,5-Dichlorophenyl)-2-(pyridin-2-yl)-4,5,6,7-tetrahydrooxazolo[4,5-c]pyridine], the IC50 (Table 2) was under 1000 nM.

On to `N#Cc1cc(N2CCOCC2)cc(N2CCc3nc(-c4ccccn4)oc3C2)c1` [Compound 11, 3-Morpholino-5-(2-(pyridin-2-yl)-6,7-dihydrooxazolo[5,4-c]pyridin-5(4H)-yl)benzonitrile], for which the IC50 (Table 1) was over 10000 nM.

Take `c1ccc(-c2nc3c(o2)CCN(c2cccnc2)C3)nc1` [Compound 154, 2-(Pyridin-2-yl)-5-(pyridin-3-yl)-4,5,6,7-tetrahydrooxazolo[4,5-c]pyridine]: where the note is “Table 2”, the IC50 was under 1000 nM.

As for `Fc1ccc(F)c(N2CCc3oc(-c4ccccn4)nc3C2)c1` [Compound 169, 5-(2,5-Difluorophenyl)-2-(pyridin-2-yl)-4,5,6,7-tetrahydrooxazolo[4,5-c]pyridine], the IC50 (Table 2) is under 1000 nM.

Take `N#Cc1ccnc(N2CCc3oc(-c4ccccn4)nc3C2)c1` [Compound 24, 2-(2-(Pyridin-2-yl)-6,7-dihydrooxazolo[4,5-c]pyridin-5(4H)-yl)isonicotinonitrile]: the IC50 (Table 1) was under 1000 nM.

Regarding `N#Cc1cc(F)cc(N2CCc3nc(-c4ccccn4)oc3CC2)c1` [Compound 89, 3-Fluoro-5-(2-(pyridin-2-yl)-7,8-dihydro-4H-oxazolo[5,4-d]azepin-6(5H)-yl)benzonitrile], the IC50 (Table 1) was under 1000 nM.

With `c1ccc(-c2nc3c(o2)CN(c2ccccn2)CC3)nc1` [Compound 2, 2,5-Di(pyridin-2-yl)-4,5,6,7-tetrahydro-oxazolo[5,4-c]pyridine], the IC50 (Table 1) was under 10000 nM.

Take `N#Cc1cccc(-c2nc3c(o2)CN(c2ccccn2)CC3)c1` [Compound 65, 3-(5-(Pyridin-2-yl)-4,5,6,7-tetrahydrooxazolo[5,4-c]pyridin-2-yl)benzonitrile]: for the setting “Table 1”, the IC50 is over 10000 nM.

Take `Fc1ccc([C@@H]2CCc3oc(-c4ccccn4)nc3C2)c(Cl)c1` (single isomer, unassigned) [Compound 224]: the IC50 (Table 2) is under 1000 nM.

For `COc1cc(F)cc(N2CCc3oc(-c4ccccn4)nc3C2)c1` [Compound 56, 5-(3-Fluoro-5-methoxyphenyl)-2-(pyridin-2-yl)-4,5,6,7-tetrahydrooxazolo[4,5-c]pyridine], the IC50 (Table 1) was under 1000 nM.

In the case of `N#Cc1cccnc1N1CCc2nc(-c3ccccc3Cl)oc2C1` [Compound 69, 2-(2-(2-Chlorophenyl)-6,7-dihydrooxazolo[5,4-c]pyridin-5(4H)-yl)nicotinonitrile], the IC50 (Table 1) is under 10000 nM.

On to `Cc1cccc(-c2nc3c(o2)CN(c2ccccn2)CC3)c1` [Compound 58, 5-(Pyridin-2-yl)-2-m-tolyl-4,5,6,7-tetrahydrooxazolo[5,4-c]pyridine], for which the IC50 (Table 1) was under 1000 nM.

On to `N#Cc1cccc(N2CCCc3nc(-c4ccc(F)cn4)oc3C2)c1` [Compound 97, 3-(2-(5-Fluoropyridin-2-yl)-7,8-dihydro-4H-oxazolo[5,4-c]azepin-5(6H)-yl)benzonitrile], for which, under “Table 1”, the IC50 is under 1000 nM.

For `O=C(CN1CCc2oc(-c3cccc(Cl)c3)nc2C1)c1ccc(F)cc1` [Compound 190, 2-(2-(3-Chlorophenyl)-6,7-dihydrooxazolo[4,5-c]pyridin-5(4H)-yl)-1-(4-fluorophenyl)ethanone], the IC50 (Table 2) was under 10000 nM.

Consider `Cc1nc(N2CCc3oc(-c4ccccn4)nc3C2)cs1` [Compound 163, 5-(2-Methylthiazol-4-yl)-2-(pyridin-2-yl)-4,5,6,7-tetrahydrooxazolo[4,5-c]pyridine], for which the IC50 (Table 2) was under 1000 nM.

On to `Cc1cccc(-c2nc3c(o2)CCN(c2ccccn2)C3)c1` [Compound 60, 5-(Pyridin-2-yl)-2-m-tolyl-4,5,6,7-tetrahydrooxazolo-[4,5-c]pyridine], for which the IC50 (Table 1) is under 1000 nM.

Regarding `N#Cc1cccc(-c2nc3c(o2)CCN(c2ncccc2C#N)C3)c1` [Compound 63, 2-(2-(3-Cyanophenyl)-6,7-dihydrooxazolo[4,5-c]pyridin-5(4H)-yl)nicotinonitrile], where the note is “Table 1”, the IC50 is under 10000 nM.

On to `Clc1ccccc1N1CCc2oc(-c3ccccn3)nc2C1` [Compound 156, 5-(2-Chlorophenyl)-2-(pyridin-2-yl)-4,5,6,7-tetrahydrooxazolo[4,5-c]pyridine], for which the IC50 (Table 2) was under 1000 nM.

For the compound `O=C(CN1CCc2oc(-c3cccc(F)c3)nc2C1)c1ccc(F)cc1` [Compound 191, 1-(4-Fluorophenyl)-2-(2-(3-fluorophenyl)-6,7-dihydrooxazolo[4,5-c]pyridin-5(4H)-yl)ethanone], the IC50 (Table 2) is over 10000 nM.

On to `Fc1cc(F)cc(N2CCCc3oc(-c4ccccn4)nc3C2)c1` [Compound 101, 5-(3,5-Difluorophenyl)-2-(pyridin-2-yl)-5,6,7,8-tetrahydro-4H-oxazolo[4,5-c]azepine], for which, where the note is “Table 1”, the IC50 is under 1000 nM.

As for `Clc1ccccc1C1CCc2oc(-c3ccccn3)nc2C1` (racemic) [Compound 219, 5-(2-Chlorophenyl)-2-(pyridin-2-yl)-4,5,6,7-tetrahydrobenzo[d]oxazole], the IC50 (Table 2) was under 1000 nM.

As for `N#Cc1cc(F)cc(N2CCCc3oc(-c4ccccn4)nc3C2)c1` [Compound 98, 3-Fluoro-5-(2-(pyridin-2-yl)-7,8-dihydro-4H-oxazolo[4,5-c]azepin-5(6H)-yl)benzonitrile], the half-maximal inhibitory concentration (IC50) (Table 1) was under 1000 nM.

Regarding `Fc1cccc(N2CCn3nc(-c4ccccn4)nc3C2)c1` [Compound 114, 7-(3-Fluorophenyl)-2-(pyridin-2-yl)-5,6,7,8-tetrahydro-[1,2,4]triazolo[1,5-a]pyrazine], for the setting “Table 1”, the IC50 was under 1000 nM.

Take `Clc1ccccc1N1CCc2oc(-c3ccncn3)nc2C1` [Compound 168, 5-(2-Chlorophenyl)-2-(pyrimidin-4-yl)-4,5,6,7-tetrahydrooxazolo[4,5-c]pyridine]: the IC50 (Table 2) was under 10000 nM.

Turning to `N#Cc1cc(N2CCc3oc(-c4ccccn4)nc3C2)ccn1` [Compound 26, 4-(2-(Pyridin-2-yl)-6,7-dihydrooxazolo[4,5-c]pyridin-5(4H)-yl)picolinonitrile], for the setting “Table 1”, the IC50 was under 1000 nM.

Turning to `Clc1cnccc1N1CCc2oc(-c3ccccn3)nc2C1` [Compound 184, 5-(3-Chloropyridin-4-yl)-2-(pyridin-2-yl)-4,5,6,7-tetrahydrooxazolo[4,5-c]pyridine], under “Table 2”, the IC50 was under 10000 nM.

Turning to `c1ccc(-c2nc3c(o2)CCN(c2ncccn2)C3)nc1` [Compound 132, 2-(pyridin-2-yl)-5-(pyrimidin-2-yl)-4,5,6,7-tetrahydrooxazolo[4,5-c]pyridine], where the note is “Table 2”, the IC50 is under 10000 nM.

As for `Clc1cccc(-c2cn3c(n2)CN(c2cccnc2)CC3)c1` [Compound 106, 2-(3-Chlorophenyl)-7-(pyridin-3-yl)-5,6,7,8-tetrahydroimidazo[1,2-a]pyrazine], the IC50 (Table 1) was under 10000 nM.

Regarding `Fc1cc(F)cc(N2CCc3nc(-c4ccccn4)oc3C2)c1` [Compound 17, 5-(3,5-Difluorophenyl)-2-(pyridin-2-yl)-4,5,6,7-tetrahydrooxazolo[5,4-c]pyridine], under “Table 1”, the IC50 was under 1000 nM.

Regarding `CC1CCN(c2cc(F)cc(C#N)c2)Cc2nc(-c3ccccn3)oc21` (centres unmarked) [Compound 215, 3-Fluoro-5-(8-methyl-2-(pyridin-2-yl)-7,8-dihydro-4H-oxazolo[4,5-c]azepin-5(6H)-yl)benzonitrile], the IC50 (Table 2) is under 1000 nM.

In the case of `N#Cc1cccnc1N1CCc2nc(-c3ccccc3)oc2C1` [Compound 19, 2-(2-Phenyl-6,7-dihydrooxazolo[5,4-c]pyridin-5(4H)-yl)nicotinonitrile], the 50% inhibitory concentration (IC50) (Table 1) is under 10000 nM.
